# Earlier results as cited in PMC12125103 (Naunyn-Schmiedeberg's Archives of Pharmacology, 2024).
substance,measurement,value
etelcalcetide [Parsabiv],maximum single dose in healthy humans for safe tolerance,10 mg
